Source: PMC7156458, “Synthetic biology based construction of biological activity-related library of fungal decalin-containing diterpenoid pyrones” (Nature Communications, 2020)
Where two headings read alike, the source gives them in different places.

Legend:
MCF-7 cells = experiment: cell cytotoxic effects against MCF-7 cells (72 h), A490; type: cell-based, human; conditions: for A490 ave: MCF-7, 72 h
MAGI cells = experiment: cytotoxicity in the anti-HIV assay (CC50); type: cell-based; conditions: single determinations
Description: We examined the inhibitory activities of DDPs against various species of bacteria (both gram-negative and gram-positive bacteria), fungi and viruses. […] In contrast, preliminary screening of the DDPs for anti-viral agents with hepatitis B virus (HBV), measles virus (MV), Epstein-Barr virus (EBV), herpes simplex virus (HSV) and human immunodeficiency virus-1 (HIV-1) indicated their selective inhibition of HIV.
Policy information about cell lines […]
HeLa-CD4-LTR/ !-galactosidase (MAGI) cells provided by Dr. J. Overbaugh through the NIH AIDS Research and Reference […]
MAGI cells were authenticated by the NIH.
Mycoplasma contamination All the cell lines tested negative for mycoplasma contamination.
Commonly misidentified lines No commonly mis-identified cell lines. […]

DL1 cells = experiment: cytotoxicity in Drosophila DL1 cells; type: cell-based; conditions: DL1 cells; for % viability, viability 1: replicate 1, relative to DMSO 1%; for % viability, viability 2: replicate 2, relative to DMSO 1%; for IC50: cytotoxicity
Method: (§1) We screened the DDPs on the Drosophila assay system for cytotoxicity, inhibitory activity of innate immune signalling and insecticidal activity. The cytotoxicity of the DDPs was evaluated using two cell lines, embryonic macrophage-derived DL1 cells[58]–[60] and larval blood cell-derived l(2)mbn cells, and their IC50 values are listed in Supplementary Table 23.

l(2)mbn cells = experiment: cytotoxicity in Drosophila l(2)mbn cells; type: cell-based; conditions: for Luminescence Raw1: replicate 1; for % viability, viability 1: replicate 1, relative to DMSO 1%; for Luminescence Raw2: replicate 2; for % viability, viability 2: replicate 2, relative to DMSO 1%
Method: as §1

[1] = Homo sapiens, MCF7, 72 h, read-out: A490 (control =1) ave

`C=C1CCC2C(C)(CCC=C(C)C)C(O)CCC2(C)C1Cc1c(OC)oc(C)c(C)c1=O` (stereo not drawn) [Compound 15, viridoxin A hydrolysate] gave a viability at 0.1 µM (MCF-7 cells; [1]) of 82%, a viability at 1 µM (MCF-7 cells; [1]) of 121% and a viability at 10 µM (MCF-7 cells; [1]) of 61.8%. The A490 ave (MCF-7 cells; 0.1 µM (DMSO 0.002%), control 1.064) was 0.873, the A490 ave (MCF-7 cells; 1 µM (DMSO 0.02%), control 1.104) was 1.333 and the A490 ave (MCF-7 cells; 10 µM (DMSO 0.2%), control 1.049) was 0.649. The Cytotoxicity (MAGI cells) was >10 µM, the “Luminescence Raw1” value (DL1 cells; 0.04 µM, replicate 1) was 2784909 and the “% viability, viability 1” value (DL1 cells; 0.04 µM) was 203.06%. For the same molecule, the “Luminescence Raw2” value (DL1 cells; 0.04 µM, replicate 2) was 3009267, the “% viability, viability 2” value (DL1 cells; 0.04 µM) was 219.419% and the “Luminescence Raw1” value (DL1 cells; 0.2 µM, replicate 1) was 2743429. For the same molecule, the “% viability, viability 1” value (DL1 cells; 0.2 µM) was 200.035%, the “Luminescence Raw2” value (DL1 cells; 0.2 µM, replicate 2) was 2853442 and the “% viability, viability 2” value (DL1 cells; 0.2 µM) was 208.057%. For the same molecule, the “Luminescence Raw1” value (DL1 cells; 1 µM, replicate 1) was 2896366, the “% viability, viability 1” value (DL1 cells; 1 µM) was 211.186% and the “Luminescence Raw2” value (DL1 cells; 1 µM, replicate 2) was 3157521. For the same molecule, the “% viability, viability 2” value (DL1 cells; 1 µM) was 230.228%, the “Luminescence Raw1” value (DL1 cells; 4 µM, replicate 1) was 726344 and the “% viability, viability 1” value (DL1 cells; 4 µM) was 52.9608%. For the same molecule, the “Luminescence Raw2” value (DL1 cells; 4 µM, replicate 2) was 1230470, the “% viability, viability 2” value (DL1 cells; 4 µM) was 89.7188% and the “Luminescence Raw1” value (DL1 cells; 10 µM, replicate 1) was 281027. For the same molecule, the “% viability, viability 1” value (DL1 cells; 10 µM) was 20.4909%, the “Luminescence Raw2” value (DL1 cells; 10 µM, replicate 2) was 344848 and the “% viability, viability 2” value (DL1 cells; 10 µM) was 25.1443%. The “Luminescence Raw1” value (DL1 cells; 20 µM, replicate 1) was 282109, the “% viability, viability 1” value (DL1 cells; 20 µM) was 20.5698% and the “Luminescence Raw2” value (DL1 cells; 20 µM, replicate 2) was 296532. For the same molecule, the “% viability, viability 2” value (DL1 cells; 20 µM) was 21.6214%, the IC50 (DL1 cells; average±SEM) was 6.1 ± 1.57 µM and the IC50 (DL1 cells; read-out: IC50 (1), replicate 1) was 4.53 µM. For the same molecule, the IC50 (DL1 cells; read-out: IC50 (2), replicate 2) was 7.66 µM, the IC50 (DL1 cells; read-out: IC50 Average, average of two replicates) was 6.1 µM and the “Luminescence Raw1” value (l(2)mbn cells; 0.04 µM) was 5571583. The “% viability, viability 1” value (l(2)mbn cells; 0.04 µM) was 88.7303%, the “Luminescence Raw2” value (l(2)mbn cells; 0.04 µM) was 5591430 and the “% viability, viability 2” value (l(2)mbn cells; 0.04 µM) was 89.0464%. The “Luminescence Raw1” value (l(2)mbn cells; 0.2 µM) was 6221854, the “% viability, viability 1” value (l(2)mbn cells; 0.2 µM) was 99.0862% and the “Luminescence Raw2” value (l(2)mbn cells; 0.2 µM) was 5568336. For the same molecule, the “% viability, viability 2” value (l(2)mbn cells; 0.2 µM) was 88.6786%, the “Luminescence Raw1” value (l(2)mbn cells; 1 µM) was 6094827 and the “% viability, viability 1” value (l(2)mbn cells; 1 µM) was 97.0632%. The “Luminescence Raw2” value (l(2)mbn cells; 1 µM) was 5439516, the “% viability, viability 2” value (l(2)mbn cells; 1 µM) was 86.6271% and the “Luminescence Raw1” value (l(2)mbn cells; 4 µM) was 5005443. The “% viability, viability 1” value (l(2)mbn cells; 4 µM) was 79.7142%, the “Luminescence Raw2” value (l(2)mbn cells; 4 µM) was 4514031 and the “% viability, viability 2” value (l(2)mbn cells; 4 µM) was 71.8882%. For the same molecule, the “Luminescence Raw1” value (l(2)mbn cells; 10 µM) was 362955, the “% viability, viability 1” value (l(2)mbn cells; 10 µM) was 5.78% and the “Luminescence Raw2” value (l(2)mbn cells; 10 µM) was 319326. The “% viability, viability 2” value (l(2)mbn cells; 10 µM) was 5.085%, the “Luminescence Raw1” value (l(2)mbn cells; 20 µM) was 109116 and the “% viability, viability 1” value (l(2)mbn cells; 20 µM) was 1.738%. For the same molecule, the “Luminescence Raw2” value (l(2)mbn cells; 20 µM) was 229184, the “% viability, viability 2” value (l(2)mbn cells; 20 µM) was 3.65% and the IC50 (l(2)mbn cells; cytotoxicity, average±SEM) was 5.23 ± 0.19 µM. It also gave an IC50 (l(2)mbn cells; read-out: IC50 (1), cytotoxicity, replicate 1) of 5.42 µM, an IC50 (l(2)mbn cells; read-out: IC50 (2), cytotoxicity, replicate 2) of 5.04 µM and an IC50 (l(2)mbn cells; read-out: IC50 Average, cytotoxicity, average of two replicates) of 5.23 µM.
